Experimental data from patent publication US12129312B2, “Peptide compound, application thereof and composition containing same” (priority 2017, dated 2024).
Read-outs that look alike come from different tables or passages of the source. Numbered stars: 1 amine (or outer) side, 2 acyl side, 3 side chain; on linkers, the order of the positions; unused ones are H or OH. Square brackets hold non-standard residues; d marks the D form. Peptide text beside a SMILES is read from it. * marks the point of attachment. Benzoyl(4-CF3) = O=C(c1ccc(C(F)(F)F)cc1)*; PEG8 = NCCOCCOCCOCCOCCOCCOCCOCCOCCC(=O)O; X6 = CCCN([C@@H](CC(C)C)C(=O)[*:2])[*:1]; X5 = O=C([C@H]1c2ccccc2CCN1[*:1])[*:2]; 1Nal = N[C@@H](Cc1cccc2ccccc12)C(=O)O; 2Nal = N[C@@H](Cc1ccc2ccccc2c1)C(=O)O; dNMeY = CN[C@H](Cc1ccc(O)cc1)C(=O)O; Hydrocinnamoyl = O=C(CCc1ccccc1)*; Palmitoyl = CCCCCCCCCCCCCCCC(=O)*; NMeF = CN[C@@H](Cc1ccccc1)C(=O)O; Tic = O=C(O)[C@@H]1Cc2ccccc2CN1; NMeL = CN[C@@H](CC(C)C)C(=O)O; NMeS = CN[C@@H](CO)C(=O)O; Thz = O=C(O)[C@@H]1CSCN1; Nva = CCC[C@H](N)C(=O)O; βAla = NCCC(=O)O

Legend:
[1] = Plasma stability, human plasma; type: in vitro ADME; conditions: 37° C., time points 0 minute, 1, 2 and 4 hours, LC-MS/MS, read-out: Human plasma (T1/2 (h)) (converted)
Experimental: (§1) 1. Preparation of 50 mM Phosphate Buffer (50 mM Sodium Phosphate and 70 mM NaCl):
(§2) 5.750 g of Na2HPO4, 1.141 g of NaH2PO4 and 4.095 g of NaCl (Shanghai Titan) were weighed and dissolved in 1000 mL of ultrapure water and the pH was adjusted to 7.4. The prepared phosphate buffer was stored in the refrigerator at 4° C., valid for one week.
(§3) 2. Preparation of Compound Stock Solution:
(§4) 1) 5 mg/mL test compound: 5 mg of compound was weighed and dissolved in 1 mL of DMSO.
(§5) 2) 20 mM control: 2.728 mg of nococaine was dissolved in 0.5 mL of DMSO. 3.878 mg of fenfluramide was dissolved in 0.5 mL of DMSO (Amresco).
(§6) 3. Preparation of Experimental Plasma:
(§7) The frozen plasma (human: Shanghai ChemPartner, Rat, Mouse: Shanghai Xipuer-Beikai, Dog, Monkey: Suzhou Xishan Zhongke) was taken out from the −80° C. refrigerator, immediately placed in a 37° C. water bath, and thawn with gentle shaking. The thawed plasma was poured into a centrifuge tube, and centrifuged at 3000 rpm for 8 minutes. The supernatant was collected for the experiment. The pH of the plasma was measured with a pH meter (METTLER TOLEDO), and only the plasma with a pH between 7.4 and 8 was used for the experiment. The plasma was placed on an ice bath for later use.
(§8) 4. Preparation of the Dosing Solution:
(§9) 1) 125 μg/mL test compound solution: 5 μL of 5 mg/mL test compound (see step 2) was added to 195 μL DMSO; 500 μM control solution: 20 mM control stock solution (see step 2) was added to 195 μL DMSO.
(§10) 2) 0.5% BSA phosphate buffer solution: 0.05 g of BSA was added to 10 mL of phosphate buffer (see step 1).
(§11) 3) 5 μg/mL test compound dosing solution: 40 μL of 125 μg/mL test compound solution was added to 960 μL of 0.5% BSA phosphate buffer solution, shaken and mixed evenly, and the dosing solution was placed in a 37° C. water bath and preheated for 5 minutes.
(§12) 20 μM control dosing solution: 40 μL of 500 μM control solution was added to 960 μL of 0.5% BSA phosphate buffer solution, shaken and mixed evenly, and the dosing solution was placed in a 37° C. water bath and preheated for 5 minutes.
(§13) 5. 10 μL of 5 μg/mL test compound and 20 μM control solution were added to the wells of the 96-well plate set at different time points (0 minute, 1 hour, 2 hours and 4 hours). The number of duplicate samples was 3.
(§14) 6. 500 μL of ACN (IS) containing 5% FA was added to the wells set at 0 minute. 90 μL of plasma was then added thereto, mixed evenly, sealed with the film and stored at 4° C. (the number of duplicates was 3).
(§15) 7. 90 μL of plasma was added to the wells set at 1 hour, 2 hours and 4 hours (the number of replicates was 3), followed by timing (the final concentration of the test compound was 500 ng/mL, and that of the control was 2 μM).
(§16) 9. All samples (0 minutes, 1 hour, 2 hours, and 4 hours) at different time points on the 96-well plate were placed on a shaker (IKA, MTS 2/4) and shaken at 600 rpm for 60 minutes. The samples were then centrifuged for 15 minutes on a centrifuge machine (Thermo Multifuge×3R) at 5594×g.
(§17) 10. 150 μL of the supernatant was taken out from the centrifuged sample and sent to LC-MS/MS for analysis (conventional peptide LC-MS/MS analysis).

[2] = biological target: T1, human Chemokine like receptor 1 (Homo sapiens, UniProt Q99788); test: Activation of Tango CMKLR1-bla U2OS cells (beta-lactamase FRET reporter); type: cell-based
T1 construct: host or cells: U2OS (Tango CMKLR1-bla U2OS)
T1 sequence (Q99788 1-373): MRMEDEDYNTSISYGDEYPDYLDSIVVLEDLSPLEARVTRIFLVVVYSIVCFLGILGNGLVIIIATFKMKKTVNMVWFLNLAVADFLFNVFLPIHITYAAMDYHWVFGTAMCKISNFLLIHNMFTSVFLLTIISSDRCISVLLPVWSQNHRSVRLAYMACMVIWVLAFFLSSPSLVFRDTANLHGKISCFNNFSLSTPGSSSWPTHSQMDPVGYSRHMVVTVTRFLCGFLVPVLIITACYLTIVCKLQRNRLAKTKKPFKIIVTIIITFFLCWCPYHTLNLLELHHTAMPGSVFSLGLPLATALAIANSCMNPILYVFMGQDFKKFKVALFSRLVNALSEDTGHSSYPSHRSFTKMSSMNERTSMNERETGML
How it was run: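 Agonist mode in Tango CMKLR1-bla U2OS cells, 10000 cells/well seeded overnight, then 10-point 3-fold compound dilutions from 10 mM DMSO stock applied for 4 h at 37 °C, 5% CO2. Beta-lactamase reporter read with CCF4-AM FRET substrate; peptide (D-Tyr)-Phe-Leu-Pro-(D-Ser)-Gln-Phe-(D-Ala)-Tic-Ser served as positive control.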

[3] = Plasma stability, mouse plasma; type: in vitro ADME; conditions: 37° C., 0-4 hours, LC-MS/MS, "Very long" = no significant degradation found in the test (4 hours)
Experimental: as §1, §2, §3, §4, §5, §6, §7, §8, §9, §10, §11, §12, §13, §14, §15, §16, §17

[4] = determination by the method of Effect Embodiment 1, read-out: EC50

Compound | EC50 [2, 4] | further results
CC(C)C[C@@H](C(=O)N1CCC[C@H]1C(=O)N[C@H](CO)C(=O)N[C@@H](CCC(N)=O)C(=O)N[C@@H](Cc1ccccc1)C(=O)N[C@H](C)C(=O)N1Cc2ccccc2C[C@H]1C(=O)N[C@@H](CO)C(=O)O)N(C)C(=O)[C@H](Cc1ccccc1)NC(=O)[C@@H](Cc1ccc(O)cc1)NC(=O)c1ccc(C(F)(F)F)cc1 [YW-195, 4-(trifluoromethyl)benzoyl-(D-Tyr)-Phe-(NMe-Leu)-Pro-(D-Ser)-Gln-Phe-(D-Ala)-Tic-Ser] ({Benzoyl(4-CF3)}-[dY]F[NMeL]P[dS]QF[dA][Tic]S-OH) | 0.8 nM | 
CC(C)C[C@H](NC(=O)[C@H](Cc1ccccc1)NC(=O)[C@H](N)Cc1ccc(O)cc1)C(=O)N1CCC[C@H]1C(=O)N[C@H](CO)C(=O)N[C@@H](CCC(N)=O)C(=O)N[C@@H](Cc1cccc2ccccc12)C(=O)N[C@H](C)C(=O)N1Cc2ccccc2C[C@H]1C(=O)N[C@@H](CO)C(=O)O [YW-117, (D-Tyr)-Phe-Leu-Pro-(D-Ser)-Gln-1Nal-(D-Ala)-Tic-Ser-OH] (H-[dY]FLP[dS]Q[1Nal][dA][Tic]S-OH) |  | EC50 [2]: 3.9 nM
CCCN(C(=O)[C@H](Cc1ccccc1)NC(=O)[C@@H](Cc1ccc(O)cc1)NC(=O)CCc1ccccc1)[C@@H](CC(C)C)C(=O)N1CCC[C@H]1C(=O)N[C@H](CO)C(=O)N[C@@H](CCC(N)=O)C(=O)N[C@@H](Cc1ccccc1)C(=O)N[C@H](C)C(=O)N1Cc2ccccc2C[C@H]1C(=O)N[C@@H](CO)C(=O)O [YW-186, 3-Phenylpropanoyl-(D-Tyr)-Phe-(NPr-Leu)-Pro-(D-Ser)-Gln-Phe-(D-Ala)-Tic-Ser] (Hydrocinnamoyl-[dY]F[X6]P[dS]QF[dA][Tic]S-OH) | 11 nM | 
CCC[C@H](NC(=O)[C@H](Cc1ccccc1)NC(=O)[C@H](N)Cc1ccc(O)cc1)C(=O)N1CCC[C@H]1C(=O)N[C@H](CO)C(=O)N[C@@H](CCC(N)=O)C(=O)N[C@@H](Cc1ccccc1)C(=O)N[C@H](C)C(=O)N1Cc2ccccc2C[C@H]1C(=O)N[C@@H](CO)C(=O)O [YW-196, (D-Tyr)-Phe-Nva-Pro-(D-Ser)-Gln-Phe-(D-Ala)-Tic-Ser] (H-[dY]F[Nva]P[dS]QF[dA][Tic]S-OH) |  | EC50 [2]: 39 nM
CC(C)C[C@H](NC(=O)[C@H](Cc1ccccc1)NC(=O)[C@H](N)Cc1ccc(O)cc1)C(=O)N1CCC[C@H]1C(=O)N[C@H](CO)C(=O)N[C@@H](CCC(N)=O)C(=O)N[C@@H](Cc1ccc2ccccc2c1)C(=O)N[C@H](C)C(=O)N1Cc2ccccc2C[C@H]1C(=O)N[C@@H](CO)C(=O)O [YW-118, (D-Tyr)-Phe-Leu-Pro-(D-Ser)-Gln-2Nal-(D-Ala)-Tic-Ser-OH] (H-[dY]FLP[dS]Q[2Nal][dA][Tic]S-OH) |  | EC50 [2]: 6.9 nM
C[C@@H](NC(=O)[C@H](Cc1ccccc1)NC(=O)[C@H](CCC(N)=O)NC(=O)[C@@H](CO)NC(=O)[C@@H]1CCCN1C(=O)[C@H](Cc1ccccc1)N(C)C(=O)[C@H](Cc1ccccc1)NC(=O)[C@H](N)Cc1ccc(O)cc1)C(=O)N1Cc2ccccc2C[C@H]1C(=O)N[C@@H](CO)C(=O)O [YW-100, (D-Tyr)-Phe-(NMe-Phe)-Pro-(D-Ser)-Gln-Phe-(D-Ala)-Tic-Ser-OH] (H-[dY]F[NMeF]P[dS]QF[dA][Tic]S-OH) | 42 nM | 
CN[C@H](Cc1ccc(O)cc1)C(=O)N[C@@H](Cc1ccccc1)C(=O)N(C)[C@@H](CC(C)C)C(=O)N1CSC[C@H]1C(=O)N[C@H](CO)C(=O)N[C@@H](CCC(N)=O)C(=O)N[C@@H](Cc1ccc2ccccc2c1)C(=O)N[C@H](C)C(=O)N1Cc2ccccc2C[C@H]1C(=O)N[C@@H](CO)C(=O)O [YW-148, (D-NMe-Tyr)-Phe-(NMe-Leu)-Thz-(D-Ser)-Gln-2Nal-(D-Ala)-Tic-Ser-OH] (H-[dNMeY]F[NMeL][Thz][dS]Q[2Nal][dA][Tic]S-OH) | 0.5 nM | 
CN[C@H](Cc1ccc(O)cc1)C(=O)N[C@@H](Cc1ccccc1)C(=O)N(C)[C@@H](CC(C)C)C(=O)N1CSC[C@H]1C(=O)N[C@H](CO)C(=O)N[C@@H](CCC(N)=O)C(=O)N[C@@H](Cc1cccc2ccccc12)C(=O)N[C@H](C)C(=O)N1Cc2ccccc2C[C@H]1C(=O)N(C)[C@@H](CO)C(=O)O [YW-142, (D-NMe-Tyr)-Phe-(NMe-Leu)-Thz-(D-Ser)-Gln-1Nal-(D-Ala)-Tic-(NMe-Ser)-OH] (H-[dNMeY]F[NMeL][Thz][dS]Q[1Nal][dA][Tic][NMeS]-OH; N-terminus assumed) | 0.9 nM | 

Second part, led by results:

EC50 [2, 4] | Compound | further results
0.7 nM | CCCCCCCCCCCCCCCC(=O)NCCOCCOCCOCCOCCOCCOCCOCCOCCC(=O)NCCC(=O)NCCC(=O)N[C@H](Cc1ccc(O)cc1)C(=O)N[C@@H](Cc1ccccc1)C(=O)N(C)[C@@H](CC(C)C)C(=O)N1CCC[C@H]1C(=O)N[C@H](CO)C(=O)N[C@@H](CCC(N)=O)C(=O)N[C@@H](Cc1ccccc1)C(=O)N[C@H](C)C(=O)N1Cc2ccccc2C[C@H]1C(=O)N[C@@H](CO)C(=O)O [YW-134, Palm-PEG8-βAla-βAla-(D-Tyr)-Phe-(NMe-Leu)-Pro-(D-Ser)-Gln-Phe-(D-Ala)-Tic-Ser-OH] ({Palmitoyl-PEG8-βAla-βAla}-[dY]F[NMeL]P[dS]QF[dA][Tic]S-OH) | half-life at 500 ng/mL [1]: 14 h; half-life at 500 ng/mL ([3]; read-out: Mouse plasma (T1/2 (h)) (converted)): 11.4 h
0.6 nM | CN[C@H](Cc1ccc(O)cc1)C(=O)N[C@@H](Cc1ccccc1)C(=O)N(C)[C@@H](CC(C)C)C(=O)N1CSC[C@H]1C(=O)N[C@H](CO)C(=O)N[C@@H](CCC(N)=O)C(=O)N[C@@H](Cc1ccc2ccccc2c1)C(=O)N[C@H](C)C(=O)N1Cc2ccccc2C[C@H]1C(=O)N(C)[C@@H](CO)C(=O)O [YW-125, (D-NMe-Tyr)-Phe-(NMe-Leu)-Thz-(D-Ser)-Gln-2Nal-(D-Ala)-Tic-(NMe-Ser)-OH] (H-[dNMeY]F[NMeL][Thz][dS]Q[2Nal][dA][Tic][NMeS]-OH; N-terminus assumed) | Mouse plasma (T1/2 (h)) ([3]; 500 ng/mL): Very long
2.1 nM | CCCCCCCCCCCCCCCC(=O)NCCOCCOCCOCCOCCOCCOCCOCCOCCC(=O)NCC(=O)NCC(=O)N(C)[C@H](Cc1ccc(O)cc1)C(=O)N[C@@H](Cc1ccccc1)C(=O)N(C)[C@@H](CC(C)C)C(=O)N1CCC[C@H]1C(=O)N[C@H](CO)C(=O)N[C@@H](CCC(N)=O)C(=O)N[C@@H](Cc1ccc2ccccc2c1)C(=O)N[C@H](C)C(=O)N1Cc2ccccc2C[C@H]1C(=O)N(C)[C@@H](CO)C(=O)O [YW-178, Palm-PEG8-Gly-Gly-(D-NMe-Tyr)-Phe-(NMe-Leu)-Pro-(D-Ser)-Gln-2Nal-(D-Ala)-Tic-(NMe-Ser)] ({Palmitoyl-PEG8}-GG[dNMeY]F[NMeL]P[dS]Q[2Nal][dA][Tic][NMeS]-OH) | 
27 nM | CC(C)C[C@H](NC(=O)[C@H](Cc1ccccc1)NC(=O)[C@H](N)Cc1ccc(O)cc1)C(=O)N1CCC[C@H]1C(=O)N[C@H](CO)C(=O)N[C@@H](CCC(N)=O)C(=O)N[C@@H](Cc1ccccc1)C(=O)N[C@H](C)C(=O)N1CCc2ccccc2[C@@H]1C(=O)N[C@@H](CO)C(=O)O [YW-151, (D-Tyr)-Phe-Leu-Pro-(D-Ser)-Gln-Phe-(D-Ala)-D-Ti1c-Ser-OH] (H-[dY]FLP[dS]QF[dA][X5]S-OH) | 
